Laboratory results taken from PMC10535004, “Investigation of Peptides for Molecular Recognition of C-Reactive Protein–Theoretical and Experimental Studies” (Analytical Chemistry, 2023).
“Also recorded” adds a separate entry of the source.

B1: P3 peptide (peptide)
peptide: VHWDFRQWWQPS
notes: 12-mer identified by phage display against CRP; immobilised on gold plates for PM-IRRAS, whose method is in the Supporting Information; also called peptide P3; source: synthetic peptide
B2: P2 peptide (peptide)
peptide: GGSDPEGMQGNY
notes: 12-mer identified by phage display against CRP; Immobilised on gold plates for PM-IRRAS; method is in the Supporting Information; also called peptide P2; source: synthetic peptide
B3: P9 clone (M13 phage exposing the P9 peptide) (other)
chain: SWFSDWDLELHA
notes: peptide exposed on the M13 phage clone P9; also called P9 phage; source: M13 bacteriophage clone from phage display; not shown: M13 bacteriophage (peptide exposed on the phage)
B4: P3 clone (M13 phage exposing the P3 peptide) (other)
chain: VHWDFRQWWQPS
notes: peptide exposed on the M13 phage clone P3; the library is described in the Supporting Information; also called P3 phage; source: M13 bacteriophage clone from phage display; not shown: M13 bacteriophage (peptide exposed on the phage)

Experiments:
C-reactive protein (CRP) = target: T1, C-reactive protein (CRP) (Homo sapiens, UniProt P02741); assay: PM-IRRAS of protein-peptide complex on gold; type: binding; details: complex immobilized on gold; peptide 100 μg mL-1, CRP 50 μg mL-1 in PBS
T1 construct: purchased Biorbyt (UK)
T1 sequence (P02741 19-224): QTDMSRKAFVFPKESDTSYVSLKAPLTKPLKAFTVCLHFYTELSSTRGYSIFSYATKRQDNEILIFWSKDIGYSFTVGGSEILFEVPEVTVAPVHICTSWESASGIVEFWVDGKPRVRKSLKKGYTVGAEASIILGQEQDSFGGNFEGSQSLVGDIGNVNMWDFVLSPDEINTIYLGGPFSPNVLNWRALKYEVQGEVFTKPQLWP
Procedure: (§1) 2.2. PM-IRRS analysis (polarisation modulation infrared reflection absorption
(§2) Three types o f samples were prepared and analysed: (a) peptide solution in PBS (100 μg mL-1), (b)
(§3) CRP solution in PBS (50 μg mL-1), and (c) protein -peptide complex. The complex was prepared

[1] = TEM analysis of peptide fibers; type: physicochemical; details: 1 mg mL-1 in PBS
Procedure: 2. Surface characterisation
Suspensions of selected phages (10^9 pfu mL-1) in PBS and corresponding peptides (1 mg mL-1) in PBS were adsorbed onto carbon-coated copper grids (Sigma) for 3 min, stained with 1.5% uracyl acetate. The samples were photographed using Tecani Spirit BioTWIN microscope at 120kV, and images were processed by iTEM program. […]

[2] = PM-IRRAS of peptide layers on gold; type: physicochemical; details: for secondary structure on gold (in words): amide I band, peptide 100 μg mL-1 in PBS
Procedure: as §1, §2, §3

C-reactive protein [3] = target: T2, C-reactive protein (human, UniProt P02741 19-224); assay: differential pulse voltammetry (electrochemical); P3 peptide covalently immobilised on TESPSA-silanised ITO, blocked with 1% BSA; 20 uL protein in PBS pH 7.4 for 30 min at room temperature; 1 mM Fc(CH2OH)2 in PBS as redox probe; drop of peak current fitted with the Hill equation, Kd = KA^n; details: both partners purified
T2 construct: C-reactive protein (CRP), cyclic pentamer of five identical, noncovalently connected subunits of 206 amino acids each (printed); PDB 3PVO was used only for docking; also called CRP
T2 sequence (looked up): T1 sequence (P02741 19-224)

C-reactive protein [4] = target: T2, C-reactive protein; assay: PM-IRRAS; peptides immobilised on gold plates; spectra of peptide, CRP and the protein-peptide complex compared; details: both partners purified
C-reactive protein [5] = target: T2, C-reactive protein; assay: ELISA; phage clones on CRP, phages detected by the enzymatic reaction of tagged anti-M13 antibodies, absorbance at 450 nm, compared with WT phage
[6] = immobilized on gold, assuming helical conformation

Molecule | peptide-CRP complex by PM-IRRAS (in words) (C-reactive protein (CRP)) | fiber structure of peptide (in words) [1] | secondary structure on gold (in words) [2] | ELISA signal, fold over WT phage (C-reactive protein [5]) | further results
GGSDPEGMQGNY [P2] | the P2-CRP complex is formed, but the effect of the P2 on the CRP secondary structure is different compared to P9 | loose fibers, which are unordered and without forming a specific structure | higher amount of disordered structures in the secondary structure | – | orientation of helix axis (in words) [2, 6]: nearly parallel to the gold surface; amide I band position ([2]; peptide immobilized on gold): 1674 cm–1
SWFSDWDLELHA [P9] | the secondary structure of the complex may be affected | The fibers self-assemble into unique structures called twisted nanoribbons | presence of β-sheets; also recorded: contains β and α or disordered peptide chains | – | angle between the helical axis and the surface [2, 6]: about 48 °
B1 | – | – | – | – | Kd (C-reactive protein [3]): 35 ± 1.2 nM
B2 | – | – | – | – | binding result (C-reactive protein [4]): binds
B3 | – | – | – | 16 fold | –
B4 | – | – | – | 13 fold | –
